Entries after “also recorded” stand apart in the source; their conditions may differ. Where two headings read alike, the source gives them in different places.
Legend:
[1] = system: pERK1/2 in KYSE520 cells; assay: p-Erk cellular assay in KYSE520 (Mesoscale); type: cell-based; settings: read-out: pERK1/2 in Cell KYSE520 IC50
Method: p-Erk Cellular Assay in KYSE520: The effect of SHP2 inhibitors on pERK level was assessed using phospho-specific antibody using Mesoscale quantification platform. For measuring change in pERK levels using mesoscale, 30,000 cells of KYSE520 cells were plated in 96-well tissue culture treated plate in 175 μl volume of media. After an overnight incubation at 37° C., various SHP2 inhibitors were added in different concentration to each well maintaining duplicate wells across plates and incubated with compounds for 2 h at 37° C. followed by a wash with ice cold PBS buffer. The cells were then lysed in lysis buffer and processed and analyzed for p-ERK/ERK as per manufacturer's instructions (Mesoscale discovery, cat No. […]-3).

[2] = target: Kv11.1 (hERG) ion channel (Homo sapiens (Human), UniProt Q12809); assay: hERG patch clamp in Kv11.1 transfected HEK293 cells; type: cell-based
Sequence of Kv11.1 (hERG) ion channel (Q12809 whole entry): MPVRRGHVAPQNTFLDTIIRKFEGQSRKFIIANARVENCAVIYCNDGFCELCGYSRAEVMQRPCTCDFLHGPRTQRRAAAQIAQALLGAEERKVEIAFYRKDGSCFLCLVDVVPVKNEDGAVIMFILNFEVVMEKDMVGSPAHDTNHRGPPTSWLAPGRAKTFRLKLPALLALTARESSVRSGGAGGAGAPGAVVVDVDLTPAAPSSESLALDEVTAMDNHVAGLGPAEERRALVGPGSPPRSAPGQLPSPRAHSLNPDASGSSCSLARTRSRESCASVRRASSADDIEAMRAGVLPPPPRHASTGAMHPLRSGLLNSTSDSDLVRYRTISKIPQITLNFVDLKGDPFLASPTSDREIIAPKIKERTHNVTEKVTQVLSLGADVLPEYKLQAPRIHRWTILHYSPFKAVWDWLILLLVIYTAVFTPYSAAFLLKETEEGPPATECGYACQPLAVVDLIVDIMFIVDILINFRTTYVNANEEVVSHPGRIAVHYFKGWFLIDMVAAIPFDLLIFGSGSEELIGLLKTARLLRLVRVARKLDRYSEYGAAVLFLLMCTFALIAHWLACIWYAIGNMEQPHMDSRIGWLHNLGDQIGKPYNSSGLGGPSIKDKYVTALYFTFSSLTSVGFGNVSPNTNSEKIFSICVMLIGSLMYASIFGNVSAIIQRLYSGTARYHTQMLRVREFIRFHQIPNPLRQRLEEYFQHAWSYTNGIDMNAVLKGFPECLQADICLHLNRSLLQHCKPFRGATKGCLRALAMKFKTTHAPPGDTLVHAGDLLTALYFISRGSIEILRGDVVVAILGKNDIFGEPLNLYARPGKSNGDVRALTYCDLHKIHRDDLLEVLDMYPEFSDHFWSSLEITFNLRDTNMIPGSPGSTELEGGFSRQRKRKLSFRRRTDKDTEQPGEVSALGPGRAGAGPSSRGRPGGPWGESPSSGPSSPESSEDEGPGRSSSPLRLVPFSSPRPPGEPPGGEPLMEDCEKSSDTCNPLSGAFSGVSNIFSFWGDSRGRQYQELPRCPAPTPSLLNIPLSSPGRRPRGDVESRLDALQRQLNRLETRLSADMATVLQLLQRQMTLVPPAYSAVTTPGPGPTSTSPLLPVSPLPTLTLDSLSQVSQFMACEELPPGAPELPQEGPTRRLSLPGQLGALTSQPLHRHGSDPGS
Method: Inhibition of the ion channel hErg (or Kv11.1) current causes QT interval prolongation resulting in potentially fatal ventricular tachyarrhythmia called Torsade de Pointes.
hERG ion channel activity was assessed using a patch clamp technique in stable Kv11.1 (hERG) transfected human embryonic kidney cell line (HEK293). Whole cell recordings were carried out with an automated patch clamp device Patchliner™ from Nanion Technologies, Munich following manufacturer recommendation. Different concentrations of the test compound or reference, quinidine, were applied to whole cells suspension and current was measured using a pulse pattern with fixed amplitudes.

[3] = Pharmacokinetics in mouse (oral / intravenous); type: in vivo; settings: female CD1 mice; for clearance / Vd: mouse; for Vd: read-out: Vd ss
Method: Female CD1 mice (N=3) received a single oral (gavage) or a single intravenous (bolus) injection of compound. […] Consecutive blood samples were taken sub-lingually under isofluorane inhalation from animals after 0.083 (IV), 0.25, 0.5, 1, 2, 4, 6 and 24 h and were further processed to obtain plasma. Samples were protein precipitated and analysed by LC/MS/MS.

[4] = target: Recombinant human SHP2 protein (2-593) (Homo sapiens (Human), UniProt Q06124); assay: SPR binding assay
Sequence of Recombinant human SHP2 protein (2-593) (Q06124 2-593): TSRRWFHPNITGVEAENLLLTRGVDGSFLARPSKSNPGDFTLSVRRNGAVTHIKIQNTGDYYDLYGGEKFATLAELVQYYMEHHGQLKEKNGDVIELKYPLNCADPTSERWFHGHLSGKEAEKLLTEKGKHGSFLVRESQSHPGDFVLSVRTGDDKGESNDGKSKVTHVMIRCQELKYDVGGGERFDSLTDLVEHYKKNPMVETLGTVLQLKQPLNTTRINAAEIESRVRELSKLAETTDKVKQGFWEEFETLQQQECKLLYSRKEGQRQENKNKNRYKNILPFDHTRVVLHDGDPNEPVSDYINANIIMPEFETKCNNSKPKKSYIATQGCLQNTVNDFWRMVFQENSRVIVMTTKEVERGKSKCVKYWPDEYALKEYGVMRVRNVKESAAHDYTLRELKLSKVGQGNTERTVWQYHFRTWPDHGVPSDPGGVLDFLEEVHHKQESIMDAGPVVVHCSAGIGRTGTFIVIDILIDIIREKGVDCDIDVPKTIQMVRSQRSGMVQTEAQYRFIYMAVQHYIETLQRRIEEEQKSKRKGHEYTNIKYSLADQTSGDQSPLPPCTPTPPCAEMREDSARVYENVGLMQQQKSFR
Method: The immobilization buffer contained 20 mM HEPES/NaOH (pH 7.4), 150 mM NaCl, 0.05% Tween 20. Inhibitors (stored as 10 mM stock solutions in 100% DMSO) were diluted in running buffer (20 mM HEPES/NaOH pH 7.4, 150 mM NaCl, 1 mM DTT, 5 mM MgCl2 0.1 mM EGTA, 0.05% Tween 20, 2% DMSO @25° C.) and analysed with a Biacore 4000 (Biacore AB, GE Healthcare Life Sciences, Uppsala, Sweden) using a 2-fold dilution series. The highest compound concentration varied according to the expected dissociation constant, but all compounds were tested at 10 different concentrations. Interaction analysis cycles were run at 30 μL/min and consisted of a 140 s sample injection followed by 600 s of buffer flow (dissociation phase). All sensograms were evaluated by first subtracting the binding response recorded from the control surface (reference spot), followed by subtracting a buffer blank injection. To determine kinetic rate constants, data sets were fitted to a simple 1:1 interaction model including a term for mass transport using numerical integration and nonlinear curve fitting. Equilibrium analysis was performed by fitting the response at the end of the association phase to a single-site binding isotherm.

[5] = system: Kyse-520 xenografts; assay: Kyse-520 xenograft (EGFR amplified esophageal cancer)
Source text: H2D Rag2 mice were inoculated with 5 million KYSE-520 cells mixed with matrigel.
In vivo efficacy of compound 74a in an EGFR amplified setting was investigated in Kyse-520 xenografts. H2D Rag2 mice were inoculated with 5 million KYSE-520 cells mixed with matrigel.

[6] = target: Full length SHP2 protein (Recombinant Human SHP-2) (Homo sapiens (Human), UniProt Q06124); assay: SHP2 biochemical assay (DiFMUP substrate, activating peptide IRSI_2pY)
Sequence of Full length SHP2 protein (Recombinant Human SHP-2) (Q06124 2-593): as above
Method: The inhibition of SHP2 by compounds of the invention was monitored using the surrogate substrate DiFMUP after protein activation by a peptide bearing two appropriately spaced phosphotyrosine. […] The generation of the DiFMU product by activated SHP2 was monitored through Fluorescence measurement with a PerkinElmer Envision reader. The inhibitor dose response curves were analyzed with Genedata Screener.

[7] = system: MCP-1 production in U937 cells; assay: Cytokine release assay in U937 cells (MCP-1 AlphaLISA, IL-6 stimulation); type: cell-based; settings: Homo sapiens, U-937; U937 cells stimulated with IL-6 (50 ng/mL) overnight
Method: Selected compounds were tested in a cytokine release assay in monocytic cells (U937) to test their anti-inflammatory properties. Cells were plated in a 96-well cell culture plate using serum-free media. The cells were treated with indicated concentrations of SHP-2 inhibitors for 30 minutes followed by overnight stimulation with recombinant IL-6 (50 ng/mL). The MCP-1 production was measured in the culture supernatant using a MCP-1 AlphaLISA kit (Perkin Elmer).

[8] = target: auto-activated mutant protein SHP2 E76K (Homo sapiens (Human), UniProt Q06124, E76K); assay: SHP2 active mutant E76K biochemical assay with and without activating peptide
Sequence of auto-activated mutant protein SHP2 E76K (Q06124 whole entry E76K): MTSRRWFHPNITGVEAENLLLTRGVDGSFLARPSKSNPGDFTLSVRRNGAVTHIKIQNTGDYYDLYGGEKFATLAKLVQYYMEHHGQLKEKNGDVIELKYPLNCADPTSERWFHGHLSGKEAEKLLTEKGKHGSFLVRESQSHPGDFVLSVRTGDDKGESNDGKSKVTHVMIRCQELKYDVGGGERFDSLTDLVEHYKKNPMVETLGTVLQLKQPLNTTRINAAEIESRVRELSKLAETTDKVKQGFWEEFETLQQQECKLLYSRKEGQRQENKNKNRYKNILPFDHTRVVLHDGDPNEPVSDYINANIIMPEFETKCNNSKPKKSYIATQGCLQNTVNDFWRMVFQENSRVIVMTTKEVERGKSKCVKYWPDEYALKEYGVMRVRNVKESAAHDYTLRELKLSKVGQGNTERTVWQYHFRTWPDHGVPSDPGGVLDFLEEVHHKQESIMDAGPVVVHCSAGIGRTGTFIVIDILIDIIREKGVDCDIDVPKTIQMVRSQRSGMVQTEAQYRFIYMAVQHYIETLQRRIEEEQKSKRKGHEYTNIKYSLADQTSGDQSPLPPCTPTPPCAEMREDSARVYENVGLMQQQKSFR
Method: The inhibition of SHP2 by compounds of the invention was monitored using the surrogate substrate DiFMUP after protein activation by a peptide bearing two appropriately spaced phosphotyrosine. Full length SHP2 protein (Recombinant HumanSHP-2, E. coli derived Ser2Arg593, N-terminal 6His tag from R&D systems; 0.0.24 nM) was incubated with activating peptide, IRSI_2pY (New England Peptide, 140 nM) and DiFMUP (molecular probes, 80 uM) at RT in buffer (HEPES pH 7.2 60 mM, DDT 5 mM, KCl 75 mM, NaCl 75 mM, EDTA 1 mM, Tween 20 0.05%) in presence of compound (10 concentrations range, top concentration 50 μM) for 60 min. The generation of the DiFMU product by activated SHP2 was monitored through Fluorescence measurement with a PerkinElmer Envision reader. The inhibitor dose response curves were analyzed with Genedata Screener.

[9] = system: MiaPaCa-2 xenografts; type: in vivo, mouse; settings: H2D Rag2 mice, 50 or 100 mg/kg daily oral gavage
Source text: H2D Rag2 mice were inoculated with 3 million MiaPaCa-2 cells.

[10] = system: U87-MG xenografts; assay: U87-MG xenograft (PTEN LOF glioblastoma); type: in vivo, mouse; settings: CD-1 nude mice, 50 mg/kg daily oral gavage, FIG. 6
Source text: CD-1 nude mice were inoculated with 10 million U87-MG cells.

[11] = system: EBC-1 xenografts; assay: EBC-1 xenograft (cMET amplified non-small cell lung cancer); type: in vivo; settings: CD-1 nude mice, 100 mg/kg daily oral gavage
Source text: CD-1 nude mice were inoculated with 5 million EBC-1 cells.

[12] = system: HPAF-2 xenografts; settings: CB17.SCID mice, 50 mg/kg 23B or 60 mg/kg RMC-4550 daily oral gavage
[13] = SHP-2 biochemical assay IC50 (μM), activating peptide IRSI_2pY 140 nM, DiFMUP, 60 min
[14] = SHP-2 IC50 (nM) peptide, wild-type SHP-2, with activating peptide
[15] = SHP-2 E76Z IC50 (nM) No peptide, without activating peptide

| Compound | Ki [2] [µM] | Fz [3] [%] | clearance ([3]; plasma, intravenous) [mL/min/kg] | Vd ([3]; plasma, intravenous) [L/kg] | IC50 [6, 13] [µM] | IC50 ([1]; Homo sapiens, KYSE-520, 2 h) [µM] | Split between hErg and cell activity Ki (patch Clamp)/IC50 (KYSE) ([2]; human) | IC50 [6, 14] [µM] | IC50 [8, 15] [nM] | also measured |
| --- | --- | --- | --- | --- | --- | --- | --- | --- | --- | --- |
| Cc1c(N2CCC3(CC2)Cc2ccccc2[C@H]3N)nc(C)n(-c2cccc(Cl)c2Cl)c1=O [Compound 74a, (3M)-6-[(1S)-1-amino-1,3-dihydrospiro[indene-2,4′-piperidin]-1′-yl]-3-(2,3-dichlorophenyl)-2,5-dimethyl-3,4-dihydropyrimidin-4-one] | 1.2 | 100 | 8.33 | 5.1 | – | – | – | – | – | IC50 ([1]; 2 h): 0.002 µM; Split between hErg and cell activity Ki (patch Clamp)/IC50 (KYSE) [2]: 704; koff ([4]; SPR, 25° C.): < 0.0001 s⁻¹; residence time ([4]; SPR, 25° C.): > 160 min; tolerability ([5]; H2D Rag2 mice, 0.8, 2.5 or 8 mg/kg daily oral gavage): All doses were well tolerated |
| Cc1nc(N2CCC3(CC2)CO[C@@H](C)[C@H]3N)c(CO)nc1-c1cccc(Cl)c1Cl [RMC-4550, reference compound] | 0.6 | 86 | 20 | – | – | – | – | – | – | Vd ([3]; in vivo): 6.1 L/kg |
| Cc1c(N2CCC3(CC2)C[C@@H](C)C[C@H]3N)nc(C)n(-c2cccc(Cl)c2Cl)c1=O [Compound 77, (3M)-6-[(1R,3R)-1-amino-3-methyl-8-azaspiro[4.5]decan-8-yl]-3-(2,3-dichlorophenyl)-2,5-dimethyl-3,4-dihydropyrimidin-4-one] | – | – | – | – | 0.006 | 0.074 | – | – | – | IC50 [7]: 0.731 µM |
| Cc1c(N2CCC3(CC2)Cc2ccccc2[C@H]3N)nc(N)n(-c2cccc(Cl)c2Cl)c1=O [Compound 117, 2-amino-6-[(3S)-3-amino-1,3-dihydrospiro[indene-2,4′-piperidin]-1′-yl]-3-(2,3-dichlorophenyl)-5-methyl-3,4-dihydropyrimidin-4-one] | 2.5 | – | – | – | – | 0.006 | 417 | – | – | IC50 ([6]; activating peptide IRSI_2pY 140 nM, DiFMUP, 60 min, read-out: SHP-2 biochemical assay IC50): 0.015 µM |
| Cc1c(N2CCC3(CC2)Cc2ncccc2[C@H]3N)nc(C)n(-c2cccc(Cl)c2Cl)c1=O (single isomer, unassigned) [Compound 66b] | 7.5 | 100 | 8.33 | 1.96 | 0.001 | 0.005 | 580 | 0.0007 | 1.9 | IC50 ([8]; SHP-2 E76Z IC50 (nM) peptide, with activating peptide IRSI_2pY 140 nM): 1.9 nM |
| Cc1c(N2CCC3(CC2)CO[C@@H](C)[C@H]3N)nc(C)n(-c2cccc(Cl)c2Cl)c1=O (single isomer, unassigned) [Compound 23b] | > 10 | 100 | 15.5 | 4.64 | 0.009 | 0.094 | – | 0.012 | 21 | IC50 ([8]; with activating peptide IRSI_2pY 140 nM, read-out: SHP-2 E76Z IC50 (nM) peptide): 12 nM; Kd [4]: 0.00714 µM; tolerability ([5]; H2D Rag2 mice, 10, 30 or 100 mg/kg daily oral gavage): All doses were well tolerated; tumor growth inhibition ([5]; H2D Rag2 mice, 10, 30 or 100 mg/kg daily oral gavage, FIG. 2): multiple dosage levels reduce growth of the tumor a significant amount; also recorded: dose-dependent significant tumor growth inhibition; tolerability [9]: All doses were well tolerated; tumor growth / regression [10]: reduces tumor size as compared to baseline; also recorded: Tumor regression; tolerability [11]: All doses were well tolerated; tumor growth inhibition ([11]; FIG. 7): reduces tumor growth; also recorded: Significant tumor growth inhibition; tolerability [12]: All doses were well tolerated; tumor inhibition ([12]; FIG. 5): Significant tumor inhibition |

From US11001561B2, “Pyrimidinone derivatives as SHP2 antagonists” (MERCK PATENT GMBH, priority 2019, dated 2021)
